# According to patent publication US20060040885A1, “Bioprosthetic heart valves” (Mayo Foundation for Medical Education and Research, a …, priority 1999, published 2006):
# How the values were obtained:
# nitric oxide synthase = assay: Nitric oxide synthase activity in aortic valve endothelial cell lysates (3H-L-arginine to L-citrulline conversion); assay type: cell-based, pigs; settings: valvular cells treated with pravastatin
# Method: To assess nitric oxide synthase activity, the aortic valve endothelial cell lysates were evaluated using an NADPH disphorase reaction. Briefly, each lysate was incubated for 30 minutes in a NOS assay buffer containing ^3H-L-arginine, NADPH (100 mM), tetrahydrobiopterin (1 mM), calmodulin ([…]), and CaCl2 (25 mM). The reaction was quenched with ice cold stop buffer (2 mM EDTA, 20 mM Hepes, pH 5.5). The mixture was passed over a Dowex AG50WX-8 Na form resin and washed with one mL stop buffer. Nitric oxide synthase activity was calculated to be the amount of L-arginine converted to L-citrulline that was inhibited by 1-NAME. A scintillation counter was used to determine the amount of radioactivity.
# rabbit aortic valves = assay: 1% cholesterol diet in rabbits, aortic valve immunostaining (PCNA, osteopontin) and cholesterol levels; assay type: in vivo, New Zealand rabbits; settings: 1% cholesterol diet for 12 weeks
# Method: In another experiment, osteopontin expression was evaluated. Osteopontin is a non-collagenous bone matrix protein found to be present in the hypercholesterolemic aortic valves. New Zealand rabbits (n=8) were fed with a 1% cholesterol diet for 12 weeks. Eight control animals were fed a normal chow diet. Aortic valves were cut and foam cells were identified by immunostaining for macrophage antibody. Cell proliferation was assessed by immunostaining for proliferating nuclear antigen (PCNA), and osteopontin (OP) for calcification. Transmission electron microscopy immunogold labeling confirmed osteopontin expression.
# [1] = system: cultured porcine aortic valve subendothelial cells; assay: 3H thymidine incorporation assay, serotonin-induced proliferation; assay type: cell-based
# Method: To examine the direct proliferative effects of serotonin, cultured porcine aortic valve subendothelial cells were treated with 1 μM, 100 nM, and 10 nM of serotonin and then tested using a ^3H thymidine incorporation assay.
compound,measurement,setting,value
"CC[C@H](C)C(=O)O[C@H]1C[C@H](O)C=C2C=C[C@H](C)[C@H](CC[C@@H](O)C[C@@H](O)CC(=O)O)[C@H]21 [Pravastatin, pravastatin]",nitric oxide synthase activity versus cells treated with serum-free media alone,nitric oxide synthase,about 100 fold
CC(C)CCC[C@@H](C)[C@H]1CC[C@H]2[C@@H]3CC=C4C[C@@H](O)CC[C@]4(C)[C@H]3CC[C@]12C [cholesterol],number of proliferating cells (PCNA) in aortic valves compared to controls,rabbit aortic valves,thousand-fold increase
same,osteopontin expression in the atherosclerotic lesion of the aortic valves,rabbit aortic valves,increased osteopontin expression
CSc1ccc2c(c1)C(N1CCN(C)CC1)Cc1ccccc1S2 (centres unmarked) [methiothepin],effect on serotonin-induced proliferation,[1]; methiothepin 7 nM with serotonin,inhibited the serotonin-induced proliferation
NCCc1c[nH]c2ccc(O)cc12 [serotonin],increase in cell proliferation compared to untreated cells,"[1]; serotonin 1 μM, 100 nM and 10 nM, p<0.001",33 fold
